# Test results: US10799605B2 (3B PHARMACEUTICALS GMBH, priority 2014, dated 2020)
# Like-named read-outs stand apart in the source and are kept apart here.
# Tests used:
# Type in all cases: binding
# [1] = tested on: GPCRs, ion channels, and transporter proteins; test: Specificity screening (ExpresSProfile), whole panel; conditions: 10^−5 M
# Protocol: The specificity screening was carried out in order to test for unspecific binding of compounds of the present invention. The specificity for NTR1 was tested using a standard battery of assays (“ExpresSProfile”) comprising 55 assays on GPCRs, ion channels, and transporter proteins. This assay was performed by Cerep (Celle l'Evescault, France; Catalog reference P1).
# Unspecific binding according to this specificity screening is observed if Inhibition of Control Specific Binding is above 50%.
# A3 (h) = A3 (h) (Homo sapiens (Human), UniProt P0DMS8); test: ExpresSProfile: adenosine receptor 3, agonist radioligand; conditions: Test Concentration 1.0E−05 M
# Chain of A3 (h) (P0DMS8 whole entry): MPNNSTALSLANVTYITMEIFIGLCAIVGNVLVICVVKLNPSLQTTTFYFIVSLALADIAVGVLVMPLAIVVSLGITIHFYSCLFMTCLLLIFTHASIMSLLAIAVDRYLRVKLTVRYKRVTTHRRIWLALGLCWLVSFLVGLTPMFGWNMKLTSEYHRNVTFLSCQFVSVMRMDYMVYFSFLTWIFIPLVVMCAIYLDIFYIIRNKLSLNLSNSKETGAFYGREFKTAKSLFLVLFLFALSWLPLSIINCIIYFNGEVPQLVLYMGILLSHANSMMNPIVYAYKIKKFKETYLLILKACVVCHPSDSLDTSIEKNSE
# alpha 2 (non-selective) = test: ExpresSProfile: alpha2 adrenergic receptor, antagonist radioligand; conditions: Test Concentration 1.0E−05 M
# CB1 (h) = CB1 (h) (Homo sapiens (Human), UniProt P21554); test: ExpresSProfile: cannabinoid receptor 1, agonist radioligand; conditions: Test Concentration 1.0E−05 M
# Chain of CB1 (h) (P21554 whole entry): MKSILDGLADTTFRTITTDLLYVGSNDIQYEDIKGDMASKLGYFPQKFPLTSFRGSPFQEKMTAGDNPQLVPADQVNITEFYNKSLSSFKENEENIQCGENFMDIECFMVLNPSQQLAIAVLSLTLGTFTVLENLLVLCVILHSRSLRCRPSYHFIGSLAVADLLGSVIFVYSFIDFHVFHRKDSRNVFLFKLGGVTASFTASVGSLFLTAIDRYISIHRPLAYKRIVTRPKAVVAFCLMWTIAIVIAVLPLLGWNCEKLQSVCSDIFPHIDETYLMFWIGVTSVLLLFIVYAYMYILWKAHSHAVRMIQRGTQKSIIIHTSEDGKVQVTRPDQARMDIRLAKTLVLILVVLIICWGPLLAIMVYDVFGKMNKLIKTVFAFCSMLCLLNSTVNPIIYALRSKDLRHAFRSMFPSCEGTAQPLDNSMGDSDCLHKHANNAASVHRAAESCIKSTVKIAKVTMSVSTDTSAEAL
# D2S (h) = D2S (h) (Homo sapiens (Human), UniProt P14416); test: ExpresSProfile: dopamine receptor 2S, antagonist radioligand; conditions: Test Concentration 1.0E−05 M
# Chain of D2S (h) (P14416 other isoform, or with tags, fused parts or gaps): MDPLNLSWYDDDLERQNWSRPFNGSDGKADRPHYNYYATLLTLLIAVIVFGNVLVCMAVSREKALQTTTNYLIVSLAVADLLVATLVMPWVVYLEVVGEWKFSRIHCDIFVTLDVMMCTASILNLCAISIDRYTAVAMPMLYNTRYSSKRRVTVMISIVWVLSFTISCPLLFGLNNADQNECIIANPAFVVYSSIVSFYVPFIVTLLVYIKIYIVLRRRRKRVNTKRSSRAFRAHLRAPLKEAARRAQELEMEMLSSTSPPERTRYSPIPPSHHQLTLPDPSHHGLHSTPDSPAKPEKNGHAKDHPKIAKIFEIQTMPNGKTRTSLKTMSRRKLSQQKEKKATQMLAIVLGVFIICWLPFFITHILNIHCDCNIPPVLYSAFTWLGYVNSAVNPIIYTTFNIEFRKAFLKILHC
# GABA (non-selective) = test: ExpresSProfile: GABA, agonist radioligand; conditions: Test Concentration 1.0E−05 M
# MC4 (h) = MC4 (h) (Homo sapiens (Human), UniProt P32245); test: ExpresSProfile: melanocortin receptor 4, agonist radioligand; conditions: Test Concentration 1.0E−05 M
# Chain of MC4 (h) (P32245 whole entry): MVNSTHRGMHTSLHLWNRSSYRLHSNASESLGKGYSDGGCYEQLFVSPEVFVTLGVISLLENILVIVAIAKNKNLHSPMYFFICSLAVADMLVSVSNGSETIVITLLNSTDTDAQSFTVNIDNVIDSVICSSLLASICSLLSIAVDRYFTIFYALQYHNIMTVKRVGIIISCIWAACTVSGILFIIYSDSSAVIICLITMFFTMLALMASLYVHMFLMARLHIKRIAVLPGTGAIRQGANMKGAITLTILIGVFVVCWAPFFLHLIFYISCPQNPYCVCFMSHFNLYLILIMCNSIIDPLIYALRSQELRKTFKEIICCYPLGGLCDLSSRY
# Y1 (h) = Y1 (h) (Homo sapiens (Human), UniProt P25929); test: ExpresSProfile: neuropeptide Y receptor 1, agonist radioligand; conditions: Test Concentration 1.0E−05 M
# Chain of Y1 (h) (P25929 whole entry): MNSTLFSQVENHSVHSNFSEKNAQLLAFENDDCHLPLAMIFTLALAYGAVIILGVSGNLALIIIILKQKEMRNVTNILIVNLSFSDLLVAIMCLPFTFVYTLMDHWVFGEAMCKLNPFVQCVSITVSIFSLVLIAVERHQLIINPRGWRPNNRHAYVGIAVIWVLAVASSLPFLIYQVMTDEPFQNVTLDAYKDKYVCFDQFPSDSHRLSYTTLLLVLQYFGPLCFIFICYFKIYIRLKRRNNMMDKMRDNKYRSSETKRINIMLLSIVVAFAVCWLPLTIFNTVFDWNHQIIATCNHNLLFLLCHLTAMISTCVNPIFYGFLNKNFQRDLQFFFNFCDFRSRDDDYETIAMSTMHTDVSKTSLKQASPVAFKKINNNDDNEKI
# 5-HT1B = 5-HT1B (Rattus norvegicus, UniProt P28564); test: ExpresSProfile: 5-hydroxytryptamine receptor 1B, antagonist radioligand; conditions: Test Concentration 1.0E−05 M
# sst (non-selective) = test: ExpresSProfile: somatostatin receptor, agonist radioligand; conditions: Test Concentration 1.0E−05 M
# Cl-channel (GABA-gated) = test: ExpresSProfile: Cl-channel, antagonist radioligand; conditions: Test Concentration 1.0E−05 M
# dopamine transporter (h) = dopamine transporter (h) (Homo sapiens (Human), UniProt Q01959); test: ExpresSProfile: dopamine transporter, antagonist radioligand; conditions: Test Concentration 1.0E−05 M
# Chain of dopamine transporter (h) (Q01959 whole entry): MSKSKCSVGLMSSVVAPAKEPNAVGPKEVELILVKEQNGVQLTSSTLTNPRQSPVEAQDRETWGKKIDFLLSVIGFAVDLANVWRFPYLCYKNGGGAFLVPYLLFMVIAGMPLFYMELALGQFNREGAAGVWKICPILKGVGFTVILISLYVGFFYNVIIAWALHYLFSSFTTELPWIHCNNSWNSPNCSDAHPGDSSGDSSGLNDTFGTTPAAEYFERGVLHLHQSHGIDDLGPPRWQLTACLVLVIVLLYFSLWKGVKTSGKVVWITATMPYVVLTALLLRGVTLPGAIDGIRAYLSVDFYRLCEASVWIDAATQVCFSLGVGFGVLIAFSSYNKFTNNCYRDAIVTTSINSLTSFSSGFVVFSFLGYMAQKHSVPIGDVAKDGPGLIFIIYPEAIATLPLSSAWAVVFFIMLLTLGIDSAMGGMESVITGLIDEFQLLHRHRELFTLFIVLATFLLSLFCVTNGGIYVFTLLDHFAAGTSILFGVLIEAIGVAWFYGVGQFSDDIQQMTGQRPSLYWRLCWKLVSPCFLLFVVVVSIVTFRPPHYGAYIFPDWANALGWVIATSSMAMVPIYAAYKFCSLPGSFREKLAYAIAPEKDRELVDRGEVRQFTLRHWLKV
# [2] = read-out: % Inhibition of Control Specific Binding
# [3] = read-out: % of Control Specific Binding 1st
# [4] = read-out: % of Control Specific Binding 2nd
# [5] = read-out: % of Control Specific Binding Mean
structure (smiles),measurement,setting,value
"COc1cccc(OC)c1-c1cc(C(=O)NC2(C(=O)O)C3CC4CC(C3)CC2C4)nn1-c1ccc(C(=O)N(C)CCCN(C)CCCN(C)C(=O)CN2CCN(CC(=O)O)CCN(CC(=O)O)CCN(CC(=O)O)CC2)cc1C(C)C (stereo not drawn) [(IIIa), 2-{[1-{4-[(3-{[3-(DOTA-methyl-amino)-propyl]-methyl-amino}-propyl)-methyl-carbamoyl]-2-isopropyl-phenyl}-5-(2,6-dimethoxy-phenyl)-1H-pyrazole-3-carbonyl]-amino}-adamantane-2-carboxylic acid]",specificity,[1],highly specific
same,inhibition at 10 µM,A3 (h); [2],-41%
same,remaining activity at 10 µM,A3 (h); [3],129%
same,remaining activity at 10 µM,A3 (h); [4],154%
same,remaining activity at 10 µM,A3 (h); [5],141%
same,% Inhibition of Control Specific Binding,alpha 2 (non-selective),−10%
same,% of Control Specific Binding 1st,alpha 2 (non-selective),114.4%
same,% of Control Specific Binding 2nd,alpha 2 (non-selective),106.1%
same,% of Control Specific Binding Mean,alpha 2 (non-selective),110.3%
same,inhibition at 10 µM,CB1 (h); [2],11%
same,remaining activity at 10 µM,CB1 (h); [3],96%
same,remaining activity at 10 µM,CB1 (h); [4],82.5%
same,remaining activity at 10 µM,CB1 (h); [5],89.3%
same,inhibition at 10 µM,D2S (h); [2],-9%
same,remaining activity at 10 µM,D2S (h); [3],113%
same,remaining activity at 10 µM,D2S (h); [4],105%
same,remaining activity at 10 µM,D2S (h); [5],109%
same,% Inhibition of Control Specific Binding,GABA (non-selective),−6%
same,% of Control Specific Binding 1st,GABA (non-selective),101.9%
same,% of Control Specific Binding 2nd,GABA (non-selective),109.9%
same,% of Control Specific Binding Mean,GABA (non-selective),105.9%
same,inhibition at 10 µM,MC4 (h); [2],-8%
same,remaining activity at 10 µM,MC4 (h); [3],113%
same,remaining activity at 10 µM,MC4 (h); [4],104%
same,remaining activity at 10 µM,MC4 (h); [5],108%
same,inhibition at 10 µM,Y1 (h); [2],-34%
same,remaining activity at 10 µM,Y1 (h); [3],128%
same,remaining activity at 10 µM,Y1 (h); [4],141%
same,remaining activity at 10 µM,Y1 (h); [5],134%
same,inhibition at 10 µM,5-HT1B; [2],-7%
same,remaining activity at 10 µM,5-HT1B; [3],107%
same,remaining activity at 10 µM,5-HT1B; [4],106%
same,remaining activity at 10 µM,5-HT1B; [5],107%
same,% Inhibition of Control Specific Binding,sst (non-selective),−11%
same,% of Control Specific Binding 1st,sst (non-selective),111.6%
same,% of Control Specific Binding 2nd,sst (non-selective),110.0%
same,% of Control Specific Binding Mean,sst (non-selective),110.8%
same,% Inhibition of Control Specific Binding,Cl-channel (GABA-gated),2%
same,% of Control Specific Binding 1st,Cl-channel (GABA-gated),106.5%
same,% of Control Specific Binding 2nd,Cl-channel (GABA-gated),89.1%
same,% of Control Specific Binding Mean,Cl-channel (GABA-gated),97.8%
same,inhibition at 10 µM,dopamine transporter (h); [2],-15%
same,remaining activity at 10 µM,dopamine transporter (h); [3],124%
same,remaining activity at 10 µM,dopamine transporter (h); [4],106%
same,remaining activity at 10 µM,dopamine transporter (h); [5],115%
